Experimental data taken from US6465433B1, “Boronic ester and acid compounds, synthesis and uses” (Millennium Pharmaceuticals, Inc., priority 1994, dated 2002).

Legend:
[1] = biological target: Human Pancreatic Chymotrypsin; test: Kinetic assay: inhibition of Human Pancreatic Chymotrypsin; type: biochemical; conditions: Table V
Cathepsin B = Cathepsin B (Homo sapiens, UniProt P07858); test: Kinetic assay: inhibition of Cathepsin B; type: biochemical; conditions: Table IV
Text: [Worded in the source for another target; this target is reported under the same test.] (§1) Table II summarizes results from kinetic experiments that measured the inhibition of the 20S proteasome by compounds having the formula of compound (1) or (2). P, AA^1, AA^2, AA^3, and Z^1 and Z^2 represent the structures present on formula (1) or (2). The protocol for the kinetic assay described in Tables II-V is as described in Rock et al., Cell 78:761-771 (1994). In these tables, Ki values are reported, which are dissociation constants for the equilibrium that is established when enzyme and inhibitor interact to form the enzyme:inhibitor complex. The reactions were performed using SDS-activated 20S proteasome from rabbit muscle. The substrate used was Suc-LLVY-AMC.

Cathepsin G = biological target: T1, Cathepsin G (Homo sapiens, UniProt P08311); test: Kinetic assay: inhibition of Cathepsin G; type: biochemical; conditions: Table V
T1 sequence (P08311 21-244): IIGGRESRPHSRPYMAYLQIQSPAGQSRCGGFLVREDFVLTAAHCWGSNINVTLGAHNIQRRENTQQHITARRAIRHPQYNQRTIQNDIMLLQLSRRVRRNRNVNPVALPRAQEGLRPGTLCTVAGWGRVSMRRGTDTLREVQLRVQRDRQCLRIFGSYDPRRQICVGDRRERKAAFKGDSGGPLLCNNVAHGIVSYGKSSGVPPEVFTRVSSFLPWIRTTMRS

Human Leukocyte Elastase = biological target: T2, Human Leukocyte Elastase (Homo sapiens, UniProt P08246); test: Kinetic assay: inhibition of Human Leukocyte Elastase; type: biochemical; conditions: Table V
T2 sequence (P08246 30-267): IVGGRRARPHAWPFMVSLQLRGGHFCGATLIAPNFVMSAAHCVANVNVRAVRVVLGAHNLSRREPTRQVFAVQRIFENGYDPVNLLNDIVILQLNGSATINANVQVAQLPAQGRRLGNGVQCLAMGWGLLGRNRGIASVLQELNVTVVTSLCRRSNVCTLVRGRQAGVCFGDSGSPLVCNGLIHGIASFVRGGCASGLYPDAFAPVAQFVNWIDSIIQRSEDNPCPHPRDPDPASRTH

[2] = biological target: SDS-activated 20S proteasome from rabbit muscle (Oryctolagus cuniculus, UniProt G1SU71+G1T4Q9); test: Kinetic assay: inhibition of the 20S proteasome; type: biochemical
Experimental: as §1, with “P,” for “Table II summarizes results from kinetic experiments that measured the inhibition of the 20S proteasome by compounds having the formula of compound (1) or (2). P,”

C2C12 cells = test: Inhibition of protein degradation in C2C12 cells; type: cell-based, mouse; conditions: Mus musculus, C2C12; 35S-methionine labelled cells; percent decrease in TCA soluble radioactivity; media with 50% serum
Experimental: One approach to testing drug candidates for their ability to inhibit the ATP-ubiquitin-dependent degradative process is to measure proteolysis in cultured cells (Rock, et al., Cell 78:761 (1994)). For example, the degradation of long-lived intracellular proteins can be measured in mouse C2C12 myoblast cells. Cells are incubated with ^35S-methionine for 48 hours to label long-lived proteins and then chased for 2 hours with medium containing unlabeled methionine. After the chase period, the cells are incubated for 4 hours in the presence or absence of the test compound. The amount of protein degradation in the cell can be measured by quantitating the trichloroacetic acid soluble radioactivity released from the pre-labeled proteins into the growth medium (an indicator of intracellular proteolysis).
C2C12 cells (a mouse myoblast line) were labelled for 48 hrs with ^35S-methionine. The cells were then washed and preincubated for 2 hrs in the same media supplemented with 2 mM unlabelled methionine. The media was removed and replaced with a fresh aliquot of the preincubation media containing 50% serum, and a concentration of the compound to be tested. The media was then removed and made up to 10% TCA and centrifuged. The TCA soluble radioactivity was counted. Inhibition of proteolysis was calculated as the percent decrease in TCA soluble radioactivity.

[3] = Table II, SDS-activated 20S proteasome from rabbit muscle, substrate Suc-LLVY-AMC

Structure (SMILES): CC(C)C[C@H](NC(=O)[C@H](CC(C)C)NC(=O)[C@H](CC(C)C)NC(=O)OCc1ccccc1)B(O)O [MG-262]
- Ki [1]: 7 nM
- Ki (Cathepsin B): 6100 nM
- Ki (Cathepsin G): 55 nM
- Ki (Human Leukocyte Elastase): 15 nM
- Ki [2, 3]: 0.035 nM
- Ki ([2]; Table IV): 0.035 nM
- Ki ([2]; Table V): 0.03 nM
- IC50 (C2C12 cells): 280 nM

Structure (SMILES): CC(C)C[C@H](NC(=O)[C@H](Cc1cccc2ccccc12)NC(=O)OCc1ccccc1)B1O[C@@H]2C[C@@H]3C[C@@H](C3(C)C)[C@]2(C)O1 [MG-267]
- Ki [1]: 2300 nM
- Ki (Cathepsin G): 33000 nM
- Ki (Human Leukocyte Elastase): 150 nM
- Ki [2, 3]: 0.1 nM
- Ki ([2]; Table V): 0.1 nM
